Legend:
human recombinant HDAC1 = target: T1, human recombinant HDAC1 (Homo sapiens, UniProt Q13547); assay: HDAC1 enzyme activity inhibition assay (HDAC Fluorimetric Drug Discovery Kit); type: biochemical; details: human recombinant HDAC1, 10 μM substrate, 30° C. 60 minutes
T1 construct: purchased Enzo Life Science BML-SE456
Experimental: (§1) In order to examine the HDAC6 selectivity of the compounds of formula I of the present invention by HDAC1 and HDAC6 enzymatic activity inhibition assays, an experiment was performed using a conventional substance as a control.
(§2) HDAC enzyme activity was measured using a HDAC Fluorimetric Drug Discovery Kit (BML-AK511, 516, Enzo Life Science). For the HDAC1 enzyme activity test, human recombinant HDAC1 (BML-SE456) was used as an enzyme source, and Fluor de Lys®-“SIRT1 (BNL-KI177) was used as a substrate. A 5-fold dilution of the compound was seeded into a 96-well plate, and then 0.3 μg of the enzyme and 10 μM of the substrate were added to each well of the plate and allowed to react at 30° C. for 60 minutes. Then, Fluor de Lys®-Developer II (BML-KI176) was added thereto and allowed to react for 30 minutes, after which the fluorescence value (Ex 360, Em 460) was measured using a multi-plate reader (Flexstation 3, Molecular Device). The HDAC6 enzyme was tested using human recombinant HDAC6 (382180) (Calbiochem) according to the same protocol as the HDAC1 enzyme activity test method. Based on the resulting values, each IC50 value was calculated using GraphPad Prism4.0 program.

human recombinant HDAC6 = target: T2, human recombinant HDAC6 (Homo sapiens, UniProt Q9UBN7); assay: HDAC6 enzyme activity inhibition assay (HDAC Fluorimetric Drug Discovery Kit); type: biochemical; details: 30° C. 60 minutes
T2 construct: purchased Calbiochem 382180
T2 sequence (Q9UBN7 1-1215): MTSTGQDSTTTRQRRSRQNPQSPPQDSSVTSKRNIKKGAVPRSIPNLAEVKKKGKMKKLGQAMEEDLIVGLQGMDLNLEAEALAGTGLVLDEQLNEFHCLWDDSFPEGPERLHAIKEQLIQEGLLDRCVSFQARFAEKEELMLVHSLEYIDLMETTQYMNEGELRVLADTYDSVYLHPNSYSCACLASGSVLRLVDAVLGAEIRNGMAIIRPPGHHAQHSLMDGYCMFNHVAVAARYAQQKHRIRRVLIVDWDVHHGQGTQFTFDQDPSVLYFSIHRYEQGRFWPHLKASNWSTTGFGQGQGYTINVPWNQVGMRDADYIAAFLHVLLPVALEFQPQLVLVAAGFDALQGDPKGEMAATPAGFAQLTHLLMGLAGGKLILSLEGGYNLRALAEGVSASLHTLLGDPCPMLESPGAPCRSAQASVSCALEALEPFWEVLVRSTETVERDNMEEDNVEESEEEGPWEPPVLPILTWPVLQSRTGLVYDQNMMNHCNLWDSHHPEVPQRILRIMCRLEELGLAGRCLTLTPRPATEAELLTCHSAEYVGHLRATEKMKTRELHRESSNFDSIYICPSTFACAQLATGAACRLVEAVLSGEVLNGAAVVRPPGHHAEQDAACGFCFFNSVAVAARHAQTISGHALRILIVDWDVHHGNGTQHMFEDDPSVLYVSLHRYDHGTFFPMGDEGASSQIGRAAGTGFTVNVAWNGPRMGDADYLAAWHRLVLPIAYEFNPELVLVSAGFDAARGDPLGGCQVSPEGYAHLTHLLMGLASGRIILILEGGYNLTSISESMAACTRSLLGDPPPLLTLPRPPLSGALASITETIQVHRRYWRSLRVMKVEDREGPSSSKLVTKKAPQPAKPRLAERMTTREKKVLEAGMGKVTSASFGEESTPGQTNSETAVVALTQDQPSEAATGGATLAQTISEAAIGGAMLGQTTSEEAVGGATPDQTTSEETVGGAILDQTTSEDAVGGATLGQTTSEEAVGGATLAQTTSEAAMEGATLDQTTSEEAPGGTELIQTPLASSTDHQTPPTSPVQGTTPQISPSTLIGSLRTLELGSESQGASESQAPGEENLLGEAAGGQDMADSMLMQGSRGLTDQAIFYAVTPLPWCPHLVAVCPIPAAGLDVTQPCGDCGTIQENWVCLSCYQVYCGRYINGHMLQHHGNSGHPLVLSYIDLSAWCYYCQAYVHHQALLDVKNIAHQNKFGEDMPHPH
Experimental: as §1, §2

T1 sequence (Q13547 whole entry): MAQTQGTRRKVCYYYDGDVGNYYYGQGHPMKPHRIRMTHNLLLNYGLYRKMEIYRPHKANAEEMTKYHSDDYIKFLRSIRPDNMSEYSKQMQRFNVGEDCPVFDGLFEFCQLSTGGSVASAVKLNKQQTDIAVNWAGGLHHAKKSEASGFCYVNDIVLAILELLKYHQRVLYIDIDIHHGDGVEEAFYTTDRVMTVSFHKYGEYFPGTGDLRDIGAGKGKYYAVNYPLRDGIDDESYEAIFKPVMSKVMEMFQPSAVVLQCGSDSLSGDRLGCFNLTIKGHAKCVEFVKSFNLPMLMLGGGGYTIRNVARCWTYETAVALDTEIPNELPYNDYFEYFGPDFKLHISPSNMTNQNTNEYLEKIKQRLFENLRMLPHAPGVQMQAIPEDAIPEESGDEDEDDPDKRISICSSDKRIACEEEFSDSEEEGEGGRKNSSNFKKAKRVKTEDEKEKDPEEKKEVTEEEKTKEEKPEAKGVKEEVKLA

SMILES	IC50 (human recombinant HDAC1) [nM]	IC50 (human recombinant HDAC6) [nM]
FC(F)(F)c1cccc(C2(Nc3ncc(-c4nnc(C(F)(F)F)o4)cn3)CCC2)c1 [Compound 1670, 5-(5-(trifluoromethyl)-1,3,4-oxadiazol-2-yl)-N-(1-(3-(trifluoromethyl)phenyl)cyclobutyl)pyrimidin-2-amine]	> 10000	596
Cc1ccccc1C1(Nc2ncc(-c3nnc(C(F)F)o3)cn2)CCC1 [Compound 1671, 5-(5-(difluoromethyl)-1,3,4-oxadiazol-2-yl)-N-(1-(o-tolyl)cyclobutyl)pyrimidin-2-amine]	> 10000	44
Cc1ccccc1C1(Nc2ncc(-c3nnc(C(F)(F)F)o3)cn2)CCC1 [Compound 1672, N-(1-(o-tolyl)cyclobutyl)-5-(5-(trifluoromethyl)-1,3,4-oxadiazol-2-yl)pyrimidin-2-amine]	> 10000	234
Cc1cccc(C2(Nc3ncc(-c4nnc(C(F)F)o4)cn3)CCC2)c1 [Compound 1673, 5-(5-(difluoromethyl)-1,3,4-oxadiazol-2-yl)-N-(1-(m-tolyl)cyclobutyl)pyrimidin-2-amine]	> 10000	25
Cc1cccc(C2(Nc3ncc(-c4nnc(C(F)(F)F)o4)cn3)CCC2)c1 [Compound 1674, N-(1-(m-tolyl)cyclobutyl)-5-(5-(trifluoromethyl)-1,3,4-oxadiazol-2-yl)pyrimidin-2-amine]	> 10000	132
Cc1ccc(C2(Nc3ncc(-c4nnc(C(F)F)o4)cn3)CCC2)cc1 [Compound 1675, 5-(5-(difluoromethyl)-1,3,4-oxadiazol-2-yl)-N-(1-(p-tolyl)cyclobutyl)pyrimidin-2-amine]	> 10000	39
Cc1ccc(C2(Nc3ncc(-c4nnc(C(F)(F)F)o4)cn3)CCC2)cc1 [Compound 1676, N-(1-(p-tolyl)cyclobutyl)-5-(5-(trifluoromethyl)-1,3,4-oxadiazol-2-yl)pyrimidin-2-amine]	> 10000	242
O=C(OCc1ccccc1)N1CCC(Nc2ncc(-c3nnc(C(F)F)o3)cn2)(c2ccccc2)CC1 [Compound 1677, Benzyl 4-((5-(5-(difluoromethyl)-1,3,4-oxadiazol-2-yl)pyrimidin-2-yl)amino)-4-phenylpiperidine-1-carboxylate]	> 10000	267
FC(F)c1nnc(-c2cnc(NC3(c4ccccc4)CCNCC3)nc2)o1 [Compound 1678, 5-(5-(difluoromethyl)-1,3,4-oxadiazol-2-yl)-N-(4-phenylpiperidin-4-yl)pyrimidin-2-amine]	> 10000	225
Fc1ccccc1C1(Nc2ncc(-c3nnc(C(F)F)o3)cn2)CC1 [Compound 1683, 5-(5-(difluoromethyl)-1,3,4-oxadiazol-2-yl)-N-(1-(2-fluorophenyl)cyclopropyl)pyrimidin-2-amine]	> 10000	21
Fc1ccc(C2(Nc3ncc(-c4nnc(C(F)F)o4)cn3)CC2)cc1 [Compound 1711, 5-(5-(difluoromethyl)-1,3,4-oxadiazol-2-yl)-N-(1-(4-fluorophenyl)cyclopropyl)pyrimidin-2-amine]	> 10000	26
Fc1ccc(C2(Nc3ncc(-c4nnc(C(F)(F)F)o4)cn3)CC2)cc1 [Compound 1712, N-(1-(4-fluorophenyl)cyclopropyl)-5-(5-(trifluoromethyl)-1,3,4-oxadiazol-2-yl)pyrimidin-2-amine]	> 10000	100
Fc1cccc(C2(Nc3ncc(-c4nnc(C(F)F)o4)cn3)CC2)c1 [Compound 1713, 5-(5-(difluoromethyl)-1,3,4-oxadiazol-2-yl)-N-(1-(3-fluorophenyl)cyclopropyl)pyrimidin-2-amine]	> 10000	33
Fc1cccc(C2(Nc3ncc(-c4nnc(C(F)(F)F)o4)cn3)CC2)c1 [Compound 1714, N-(1-(3-fluorophenyl)cyclopropyl)-5-(5-(trifluoromethyl)-1,3,4-oxadiazol-2-yl)pyrimidin-2-amine]	> 10000	138
Fc1ccc(C2(Nc3ncc(-c4nnc(C(F)F)o4)cn3)CC2)cc1Cl [Compound 1722, N-(1-(3-chloro-4-fluorophenyl)cyclopropyl)-5-(5-(difluoromethyl)-1,3,4-oxadiazol-2-yl)pyrimidin-2-amine]	> 10000	29
Fc1ccc(C2(Nc3ncc(-c4nnc(C(F)(F)F)o4)cn3)CC2)cc1Cl [Compound 1723, N-(1-(3-chloro-4-fluorophenyl)cyclopropyl)-5-(5-(trifluoromethyl)-1,3,4-oxadiazol-2-yl)pyrimidin-2-amine]	> 10000	219
FC(F)c1nnc(-c2cnc(NC3(c4ccc(C(F)(F)F)cc4)CC3)nc2)o1 [Compound 1738, 5-(5-(difluoromethyl)-1,3,4-oxadiazol-2-yl)-N-(1-(4-(trifluoromethyl)phenyl)cyclopropyl)pyrimidin-2-amine]	> 10000	132
FC(F)c1nnc(-c2cnc(NC3(c4cccc(C(F)(F)F)c4)CC3)nc2)o1 [Compound 1740, 5-(5-(difluoromethyl)-1,3,4-oxadiazol-2-yl)-N-(1-(3-(trifluoromethyl)phenyl)cyclopropyl)pyrimidin-2-amine]	> 10000	62
FC(F)(F)c1cccc(C2(Nc3ncc(-c4nnc(C(F)(F)F)o4)cn3)CC2)c1 [Compound 1741, 5-(5-(trifluoromethyl)-1,3,4-oxadiazol-2-yl)-N-(1-(3-(trifluoromethyl)phenyl)cyclopropyl)pyrimidin-2-amine]	> 10000	450
FC(F)(F)c1ccc(C2(Nc3ncc(-c4nnc(C(F)(F)F)o4)cn3)CC2)cc1 [Compound 1742, 5-(5-(trifluoromethyl)-1,3,4-oxadiazol-2-yl)-N-(1-(4-(trifluoromethyl)phenyl)cyclopropyl)pyrimidin-2-amine]	> 10000	531
Oc1cccc(C2(Nc3ncc(-c4nnc(C(F)F)o4)cn3)CCC2)c1 [Compound 1761, 3-(1-((5-(5-(difluoromethyl)-1,3,4-oxadiazol-2-yl)pyrimidin-2-yl)amino)cyclobutyl)phenol]	> 10000	25
Fc1ccc(C2(Nc3ncc(-c4nnc(C(F)(F)F)o4)cn3)CC2)cc1F [Compound 1780, N-(1-(3,4-difluorophenyl)cyclopropyl)-5-(5-(trifluoromethyl)-1,3,4-oxadiazol-2-yl)pyrimidin-2-amine]	> 10000	420
Fc1ccc(C2(Nc3ncc(-c4nnc(C(F)F)o4)cn3)CCC2)cc1Cl [Compound 1817, N-(1-(3-chloro-4-fluorophenyl)cyclobutyl)-5-(5-(difluoromethyl)-1,3,4-oxadiazol-2-yl)pyrimidin-2-amine]	> 10000	78
Fc1ccc(C2(Nc3ncc(-c4nnc(C(F)(F)F)o4)cn3)CCC2)cc1Cl [Compound 1818, N-(1-(3-chloro-4-fluorophenyl)cyclobutyl)-5-(5-(trifluoromethyl)-1,3,4-oxadiazol-2-yl)pyrimidin-2-amine]	> 10000	751
Fc1cc(F)cc(C2(Nc3ncc(-c4nnc(C(F)F)o4)cn3)CCC2)c1 [Compound 1819, 5-(5-(difluoromethyl)-1,3,4-oxadiazol-2-yl)-N-(1-(3,5-difluorophenyl)cyclobutyl)pyrimidin-2-amine]	> 10000	70
